Square brackets hold non-standard residues; d marks the D form. Peptide text beside a SMILES is read from it. Dmt = Cc1cc(O)cc(C)c1C[C@H](N)C(=O)O; Orn = NCCC[C@H](N)C(=O)O
Assays:
Assay type in all cases: in vivo
D2-mdx mice = assay: Echocardiography in D2-mdx mouse model; conditions: treated vs untreated D2-mdx mice; daily IP 1.0 or 5.0 mg/kg for 10-15 weeks
Description: Animals and Care: The DBA2 (a.k.a. D2-mdx) congenic strain of mdx mouse will be used for these studies. DBA/2J mice will be used as the wildtype control group. Animals will be obtained from appropriate sources (e.g. Jackson Labs). Animals will be housed at a density of up to five males or five females per cage under specific pathogen-free conditions in rooms with a 12-h light/12-h dark cycle at a temperature of 18-23° C. and 40-60% humidity. All experiments involving mice in this study will be performed in accordance with all applicable laws and regulations.
Echocardiography: In order to assess the cardiac function of mice in vivo, echocardiography will be performed on sedated mice. Mice will first be anesthetized (e.g. with 5% isoflurane mixed with 100% oxygen at 1.0 1/min flow) and then maintained under anesthesia (e.g. with 1.5% isoflurane/oxygen flow. Ophthalmic ointment can be placed on the eyes of the animals to prevent drying of the cornea while the mouse was anesthetized and tested. After anesthetic induction, the animals will be placed on a thermostatically controlled heated platform, where anesthesia can be maintained by delivery through a close-fitting facemask. A heating lamp can also be used to keep the heart rate and body temperature constant at physiological status during echocardiography.
During the examination, the animal’s heart rate will be monitored through the use of an electrocardiograph. The mouse’s heart rate and body temperature will be monitored continuously during the scanning. Echocardiography will be performed using an appropriate apparatus (e.g. Vevo770 ultrasound machine (VisualSonics, Toronto, Canada). The 2-D (B-mode), M-mode and Doppler images will be acquired from a modified parasternal long axis view, parasternal short axis view, suprasternal notch view and apical three-chamber view. The heart rate (BPM), fractional shortening, EF, stroke volume and cardiac output will be obtained for cardiac function assessment using measurements from the modified parasternal short axis view in the M-mode. Qualitative and quantitative measurements will be recorded using offline workstation software, and post-imaging analysis will be performed.
Study Design • 1. N=40-60 mice total assigned to following groups • a. Wildtype control - untreated, n=10-15 • b. mdx, vehicle treated, n=10-15 • c. mdx, daily IP elamipretide 1.0 mg/kg, n=10-15 • d. mdx, daily IP elamipretide 5.0 mg/kg, n=10-15 • 2. Dosing to begin at 4-6 weeks of age and continue for 10-15 weeks • a. Weekly retroorbital eye bleeds will be taken to provide serum for biomarker analysis • 3. In-life endpoints • a. Weekly body weight will be taken • b. Measurements of weekly voluntary wheel running will be determined • i. Total distance (m) • ii. Normalized distance (m/kg) • c. Echocardiogram (at least at week 18 & end of study but possibly more often, including possibly bi-monthly). The following parameters will be accessed. • i. Ejection fraction (%) • ii. Fractional shortening (%) • iii. Stroke volume (uL) • iv. Cardiac output (mL) • v. Heart rate (bpm) • 4. Endpoints post-necropsy • a. Serum analysis for creatine kinase • b. Histology of heart and inflammation and fibrosis

DMD KO rabbits = assay: Body weight and survival in DMD KO rabbit model; conditions: treated DMD KO rabbits vs untreated control group of DMD KO rabbits; 0.5 to 5 mg/kg once daily i.p., approximately 3-5 months
From the text: Rabbits: The DMD KO rabbits used in this study will be obtained from the Laboratory Animal Center of Jilin University or prepared as described in Sui et al., Disease Models & Mechanisms 11 (2018). […] New Zealand rabbits (WT) will be used as controls.
Body Weight & Survival Curve: The body weight of age- and sex-matched WT and DMD KO rabbits will be measured biweekly. All data will be expressed as the mean±s.e.m., and a minimum of three individual animals of each genotype will be used in all experiments.
Study Design: At approximately 3-4 weeks of age, rabbits will be administered peptide (or a mixture of peptides) dissolved in sterile saline in dose(s) ranging from 0.5 to 5 mg/kg, once daily via intraperitoneal (i.p.) injection. The control group will be given placebo (sterile saline). Rabbits will be treated daily with peptide (or a mixture of peptides) or saline vehicle control, with treatment lasting approximately 3-5 months. For example, the peptide used could be a peptide of Formula A-1 (i.e. H-D-Arg-2′6′-Dmt-Lys-Phe-NH2). Echocardiograms will be collected monthly until animals are approximately 4-6 months of age or end of life. At the time of death, tissues will be harvested and variables described above will be collected.

[1] = tested on: Subjects suspected of having or diagnosed as having DMD or BMD; assay: Treatment of cardiomyopathy in human subjects diagnosed with muscular dystrophy; conditions: daily subcutaneous 0.5-5.0 mg/kg/day or weekly intravenous 0.05-1.0 mg/kg/hr. for up to 4 hours
Description: Subjects suspected of having or diagnosed as having DMD or BMD receive daily subcutaneous administration of H-D-Arg-2′6′-Dmt-Lys-Phe-NH2 or H-D-Arg-2′6′-Dmt-Lys-Phe-OH (e.g. with 0.5-5.0 mg/kg/day). Alternatively, subjects suspected of having or diagnosed as having DMD or BMD receive weekly intravenous administration of H-D-Arg-2′6′-Dmt-Lys-Phe-NH2 or H-D-Arg-2′6′-Dmt-Lys-Phe-OH (e.g. with 0.05-1.0 mg/kg/hr. for up to 4 hours). In some cases, the subjects could be co-administered a drug known to increase or correct the production of dystrophin in the subject, such as a phosphorodiamidate morpholino oligomer (PMO) such as Eteplirsen (Exondys 51®), Golodirsen (Vyondys 53™) or Casimersen (Amondys 45™) or a PPMO. Subjects will be regularly evaluated (e.g., weekly, bi-weekly, monthly, etc.) for the presence and/or severity of signs and symptoms of cardiomyopathy associated with DMD or BMD including, but not limited to, impaired left ventricular dynamics, e.g., reduced ejection fraction, reduced shortening fraction, reduced stroke volume, and/or reduced cardiac output, and elevated levels serum biomarkers associated with myocardial fibrosis, such as, e.g., elevated levels of carboxy terminal peptide of procollagen type I (PICP) and/or amino terminal propeptide of procollagen type III. […]

[2] = tested on: Subjects suspected of having or diagnosed as having DMD or BMD and taking corticosteroids and/or Eteplirsen, Golodirsen or Casimersen; assay: Treatment of cardiomyopathy in human subjects with DMD or BMD taking corticosteroids and/or Eteplirsen, Golodirsen or Casimersen; conditions: for signs or symptoms of cardiomyopathy associated with DMD or BMD: human subjects taking corticosteroids and/or Eteplirsen, Golodirsen or Casimersen, daily subcutaneous 0.5-5.0 mg/kg/day or weekly intravenous 0.05-1.0 mg/kg/hr. for up to 4 hours; for effect of combination with corticosteroids and/or Eteplirsen, Golodirsen or Casimersen on signs or symptoms of cardiomyopathy: human subjects, compared to peptide alone, or corticosteroids and/or Eteplirsen, Golodirsen or Casimersen alone
Description: Subjects suspected of having or diagnosed as having DMD or BMD and taking corticosteroids and/or Eteplirsen (Exondys 51®), Golodirsen (Vyondys 53™)or Casimersen (Amondys 45™) are separately, sequentially, or simultaneously subcutaneously administered a daily dose of H-D-Arg-2′6′-Dmt-Lys-Phe-NH2 or H-D-Arg-2′6′-Dmt-Lys-Phe-OH (e.g. with 0.5-5.0 mg/kg/day) or a weekly intravenous administration of H-D-Arg-2′6′-Dmt-Lys-Phe-NH2 or H-D-Arg-2′6′-Dmt-Lys-Phe-OH (e.g. with 0.05-1.0 mg/kg/hr. for up to 4 hours). Subjects will be regularly evaluated (e.g., weekly, bi-weekly, monthly, etc.) for the presence and/or severity of signs and symptoms of cardiomyopathy associated with DMD or BMD including, but not limited to, impaired left ventricular dynamics, e.g., reduced ejection fraction, reduced shortening fraction, reduced stroke volume, and/or reduced cardiac output, and elevated levels serum biomarkers associated with myocardial fibrosis, such as, e.g., elevated levels of carboxy terminal peptide of procollagen type I (PICP) and/or amino terminal propeptide of procollagen type III. Treatments are maintained at least until such a time as one or more signs or symptoms of cardiomyopathy associated with DMD or BMD are ameliorated or eliminated. The study may be conducted in a randomized withdrawal trial (e.g. randomized, double-blind, placebo-controlled withdrawal trial) to assess the impact of the peptide on the subjects followed by the impact of its withdrawal relative to a control group still receiving the peptide.

SMILES | cardiac output (D2-mdx mice) | fractional shortening (FS) (D2-mdx mice) | lifespan (DMD KO rabbits) | signs or symptoms of cardiomyopathy associated with DMD or BMD [1] | signs or symptoms of cardiomyopathy associated with DMD or BMD [2] | effect of combination with corticosteroids and/or Eteplirsen, Golodirsen or Casimersen on signs or symptoms of cardiomyopathy [2]
Cc1cc(O)cc(C)c1C[C@H](NC(=O)[C@H](N)CCCNC(=N)N)C(=O)N[C@@H](CCCNC(=N)N)C(=O)N[C@@H](Cc1ccccc1)C(N)=O [Compound A-3] (H-[dR][Dmt]RF-NH2) | higher | higher | statistically significant increase in lifespan |  |  | 
Cc1cc(O)cc(C)c1C[C@H](NC(=O)[C@H](N)CCCNC(=N)N)C(=O)N[C@@H](CCCCN)C(=O)N[C@@H](Cc1ccccc1)C(=O)O [Compound A-2, H-D-Arg-2′6′-Dmt-Lys-Phe-OH] (H-[dR][Dmt]KF-OH) | higher | higher | statistically significant increase in lifespan | reduced severity or elimination | delayed or reduced severity or elimination | synergistic effects
Cc1cc(O)cc(C)c1C[C@H](NC(=O)[C@H](N)CCCNC(=N)N)C(=O)N[C@@H](CCCNC(=N)N)C(=O)N[C@@H](Cc1ccccc1)C(=O)O [Compound A-4] (H-[dR][Dmt]RF-OH) | higher | higher | statistically significant increase in lifespan |  |  | 
Cc1cc(O)cc(C)c1C[C@H](NC(=O)[C@H](N)CCCNC(=N)N)C(=O)N[C@@H](CCCCN)C(=O)N[C@@H](Cc1ccccc1)C(N)=O [Compound A-1, H-D-Arg-2′6′-Dmt-Lys-Phe-NH2] (H-[dR][Dmt]KF-NH2) | higher | higher | statistically significant increase in lifespan | reduced severity or elimination | delayed or reduced severity or elimination | synergistic effects
Cc1cc(O)cc(C)c1C[C@H](NC(=O)[C@H](N)CCCNC(=N)N)C(=O)N[C@@H](CCCN)C(=O)N[C@@H](Cc1ccccc1)C(=O)O [Compound A-6] (H-[dR][Dmt][Orn]F-OH) | higher | higher | statistically significant increase in lifespan |  |  | 
Cc1cc(O)cc(C)c1C[C@H](NC(=O)[C@H](N)CCCNC(=N)N)C(=O)N[C@@H](CCCN)C(=O)N[C@@H](Cc1ccccc1)C(N)=O [Compound A-5] (H-[dR][Dmt][Orn]F-NH2) | higher | higher | statistically significant increase in lifespan |  |  | 
N=C(N)NCCC[C@@H](N)C(=O)N[C@@H](Cc1ccc(O)cc1)C(=O)N[C@@H](CCCCN)C(=O)N[C@@H](Cc1ccccc1)C(N)=O [Compound A-7] (H-[dR]YKF-NH2) | higher | higher | statistically significant increase in lifespan |  |  | 
N=C(N)NCCC[C@@H](N)C(=O)N[C@@H](Cc1ccc(O)cc1)C(=O)N[C@@H](CCCCN)C(=O)N[C@@H](Cc1ccccc1)C(=O)O [Compound A-8] (H-[dR]YKF-OH) | higher | higher | statistically significant increase in lifespan |  |  | 

Reference: patent publication US20230256047A1, “METHODS AND COMPOSITIONS FOR THE TREATMENT OF MUSCULAR DYSTROPHY” (STEALTH BIOTHERAPEUTICS INC., priority 2020, published 2023)
